In ChEMBL document CHEMBL3120100, “Identification and biological evaluation of flavonoids from the fruits of Prunus mume” (2014):

Tests used:
[1] = Antiosteoporotic activity in C57BL/6 mouse MC3T3-E1 cells assessed as increase in mineralization by measuring calcium deposition at 5 uM by Alizarin Red staining assay relative to control; format: functional
[2] = Antiosteoporotic activity in alpha-MEM-induced C57BL/6 mouse MC3T3-E1 cells assessed as increase in collagen synthesis at 5 uM by Sirius Red-based colorimetric assay relative to control; format: functional
[3] = molecular target: T1, Tartrate-resistant acid phosphatase type 5 (Mus musculus) (UniProt Q05117); assay: Inhibition of TRAP activity in RANKL-induced Balb/c mouse RAW264.7 cells at 10 uM after 1 hr by ELISA relative to control; format: cell-based
T1 sequence (whole entry): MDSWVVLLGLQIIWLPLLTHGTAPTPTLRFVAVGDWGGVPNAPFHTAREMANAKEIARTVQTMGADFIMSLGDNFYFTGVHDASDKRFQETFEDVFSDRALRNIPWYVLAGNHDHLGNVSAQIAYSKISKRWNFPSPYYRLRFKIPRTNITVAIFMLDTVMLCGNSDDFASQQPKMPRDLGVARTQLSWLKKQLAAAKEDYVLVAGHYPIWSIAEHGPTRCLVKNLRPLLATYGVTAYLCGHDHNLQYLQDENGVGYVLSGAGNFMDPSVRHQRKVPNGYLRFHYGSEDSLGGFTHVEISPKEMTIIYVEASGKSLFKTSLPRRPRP

[4] = Antioxidant activity assessed as trolox equivalent of APPH-induced peroxyl radical scavenging activity at 1 uM measured every 2 mins by ORAC fluorescence assay; format: functional
[5] = Antioxidant activity assessed as reduction of Cu2+ to Cu+ at 10 uM; format: functional
[6] = Antiosteoporotic activity in C57BL/6 mouse MC3T3-E1 cells assessed as increase in collagen synthesis at 5 uM by Sirius Red-based colorimetric assay relative to control; format: functional
[7] = Antioxidant activity assessed as trolox equivalent of APPH-induced peroxyl radical scavenging activity measured every 2 mins by ORAC fluorescence assay; format: functional
[8] = molecular target: T1, Tartrate-resistant acid phosphatase type 5 (Mus musculus); assay: Inhibition of TRAP activity in RANKL-induced Balb/c mouse RAW264.7 cells at 1 uM after 1 hr by ELISA relative to control; format: cell-based
[9] = Antiosteoporotic activity in alpha-MEM-induced C57BL/6 mouse MC3T3-E1 cells assessed as increase in mineralization by measuring calcium deposition at 5 uM by Alizarin Red staining assay relative to control; format: functional
[10] = molecular target: T1, Tartrate-resistant acid phosphatase type 5 (Mus musculus); assay: Inhibition of TRAP activity in Balb/c mouse RAW264.7 cells at 10 uM after 1 hr by ELISA relative to control; format: cell-based

`Oc1ccc([C@@]23Oc4cc(O)cc(O)c4[C@@H](c4c(O)cc(O)c5c4O[C@H](c4ccc(O)c(O)c4)[C@H](O)C5)[C@@H]2O3)cc1` gave an Activity [1] of 151.36%, an Activity [2] of 77.16% and a TRAP activity (% of control) [3] of 85.6%. For the same compound, the Activity [4] was 5.42 µM, the Activity [5] was 29.9 µM and the Activity [6] was 179.68%. The Activity [7] was “Dose-dependent effect”, the inhibition [8] was 78.5% and the Activity [9] was 89.84%.

For `Oc1cc(O)c2c(c1)O[C@@]1(c3ccc(O)c(O)c3)O[C@H]1[C@@H]2c1c(O)cc(O)c2c1O[C@H](c1ccc(O)c(O)c1)[C@H](O)C2`, the Activity [1] was 185.08%, the Activity [2] was 103.38% and the TRAP activity (% of control) [3] was 107%. The Activity [4] was 5.22 µM, the Activity [5] was 34.7 µM and the Activity [6] was 240.74%. The Activity [7] was “Dose-dependent effect”, the inhibition [8] was 98% and the Activity [9] was 109.85%.

In the case of `C[C@@H]1O[C@@H](O[C@H]2[C@H](Oc3c(-c4ccc(O)c(O)c4)oc4cc(O)cc(O)c4c3=O)O[C@H](CO)[C@H](O)[C@@H]2O)[C@H](O)[C@H](O)[C@H]1O`, the Activity [1] is reported as 176.44%, the Activity [2] is reported as 96.59% and the TRAP activity (% of control) [3] is reported as 128%. For the same compound, the Activity [4] was 3.36 µM, the Activity [5] was 19.4 µM and the Activity [6] was 224.92%. The Activity [7] was “Dose-dependent effect”, the inhibition [8] was 101% and the Activity [9] was 104.72%.

With `Oc1cc(O)c2c(c1)O[C@H](c1ccc(O)c(O)c1)[C@H](O)C2` [(-)-EPICATECHIN] the Activity [1] was 188.57%, the Activity [2] was 105.69% and the TRAP activity (% of control) [3] was 84%. For the same compound, the Activity [4] was 4.49 µM, the Activity [5] was 25.7 µM and the Activity [6] was 246.13%. The Activity [7] was “Dose-dependent effect”, the inhibition [8] was 78.3% and the Activity [9] was 111.92%.

In the case of `O=c1c(O[C@@H]2O[C@H](CO)[C@@H](O)[C@H](O)[C@H]2O)c(-c2ccc(O)c(O)c2)oc2cc(O)cc(O)c12` [ISOQUERCETIN], the Activity [1] is reported as 181.25%, the Activity [2] is reported as 112.49% and the TRAP activity (% of control) [3] is reported as 82.9%. For the same compound, the Activity [4] was 4.4 µM, the Activity [5] was 21.3 µM and the Activity [6] was 261.95%. For the same compound, the Activity [7] was “Dose-dependent effect”, the inhibition [8] was 76.6% and the Activity [9] was 107.58%.

Compound `C[C@@H]1O[C@@H](OC[C@H]2O[C@@H](Oc3c(-c4ccc(O)c(O)c4)oc4cc(O)cc(O)c4c3=O)[C@H](O)[C@@H](O)[C@@H]2O)[C@H](O)[C@H](O)[C@H]1O` [RUTIN] has an Activity [1] of 173.94%, an inhibition [10] of 146% and an Activity [2] of 100.09%. For the same compound, the TRAP activity (% of control) [3] was 71.7%, the Activity [4] was 3.78 µM and the Activity [5] was 30.1 µM. The Activity [6] was 233.08%, the Activity [7] was “Dose-dependent effect” and the inhibition [8] was 78%. For the same compound, the Activity [9] was 103.24%.
